Measurements as given in patent US10294202B2, “Pyrrolidinones as herbicides” (FMC Corporation, priority 2013, dated 2019).

What was measured:
sedge, umbrella = assay: Test C flooded paddy test; format: in vivo, Cyperus difformis; conditions: Flood
Description: (§1) Plant species in the flooded paddy test consisted of rice (Oryza sativa), sedge, umbrella (small-flower umbrella sedge, Cyperus difformis), ducksalad (Heteranthera limosa), and barnyardgrass (Echinochloa crus-galli) grown to the 2-leaf stage for testing. At time of treatment, test pots were flooded to 3 cm above the soil surface, treated by application of test compounds directly to the paddy water, and then maintained at that water depth for the duration of the test. Treated plants and controls were maintained in a greenhouse for 13 to 15 days, after which time all species were compared to controls and visually evaluated. Plant response ratings, summarized in Table C, are based on a scale of 0 to 100 where 0 is no effect and 100 is complete control. A dash (-) response means no test result.

ducksalad = assay: Test C flooded paddy test; format: in vivo, Heteranthera limosa; conditions: Flood
Description: as §1

morningglory = assay: Test A pre-/postemergence herbicide test; format: in vivo, Ipomoea spp.; conditions: for Morningglory plant response rating: Preemergence, visual rating on 0 to 100 scale (0 no effect, 100 complete control)
In short: (§2)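 Visual 0–100 ratings (100 = complete control) made about 10 days after treatment, greenhouse-held plants compared with untreated controls. Treatments: postemergence sprays on one- to two-leaf plants (2–10 cm tall) and preemergence directed soil sprays after planting in loam–sand, chemicals formulated in non-phytotoxic solvent containing surfactant.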

velvetleaf = assay: Test A pre-/postemergence herbicide test; format: in vivo, Abutilon theophrasti; conditions: for Velvetleaf plant response rating: Preemergence, visual rating on 0 to 100 scale (0 no effect, 100 complete control)
In short: as §2

corn = assay: Test A pre-/postemergence herbicide test; format: in vivo, Zea mays; conditions: for Corn plant response rating: Preemergence
In short: as §2

rice = assay: Test C flooded paddy test; format: in vivo, Oryza sativa; conditions: Flood
Description: as §1

barnyardgrass [1] = assay: Test A pre-/postemergence herbicide test; format: in vivo, Echinochloa crus-galli
In short: as §2

barnyardgrass [2] = assay: Test C flooded paddy test; format: in vivo, Echinochloa crus-galli; conditions: Flood
Description: as §1

wheat = assay: Test A pre-/postemergence herbicide test; format: in vivo, Triticum aestivum; conditions: for Wheat plant response rating: Preemergence
In short: as §2

giant foxtail = assay: Test A pre-/postemergence herbicide test; format: in vivo, Setaria faberii
In short: as §2

crabgrass, large = assay: Test A pre-/postemergence herbicide test; format: in vivo, Digitaria sanguinalis; conditions: for Crabgrass, Large plant response rating: Preemergence, visual rating on 0 to 100 scale (0 no effect, 100 complete control)
In short: as §2

pigweed = assay: Test A pre-/postemergence herbicide test; format: in vivo, Amaranthus retroflexus
In short: as §2

kochia = assay: Test A pre-/postemergence herbicide test; format: in vivo, Kochia scoparia; conditions: for Plant response rating, Kochia: 125 g ai/ha
In short: as §2

galium = assay: Test A postemergence herbicide test; format: in vivo, Galium aparine; conditions: 125 g ai/ha, visual rating on 0 to 100 scale (0 no effect, 100 complete control), approx. 10 days
In short: (§3)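 Blackgrass and galium grown in pots of loam soil–sand blend, treated postemergence at 2–10 cm height, one- to two-leaf stage. Plants kept in greenhouse ~10 days, then visually rated for injury against untreated controls on a 0–100 scale (0 no effect, 100 complete control).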

blackgrass = assay: Test A postemergence herbicide test; format: in vivo, Alopecurus myosuroides
In short: as §3

ryegrass, Italian = assay: Test A pre-/postemergence herbicide test; format: in vivo, Lolium multiflorum; conditions: for Plant response rating, Ryegrass, Italian: 125 g ai/ha
In short: as §2

ragweed = assay: Test A pre-/postemergence herbicide test; format: in vivo, Ambrosia elatior; conditions: for Plant response rating, Ragweed: 125 g ai/ha
In short: as §2

[3] = 31 g ai/ha, scale of 0 to 100 where 0 is no effect and 100 is complete control, 13 to 15 days
[4] = 62 g ai/ha, scale of 0 to 100 where 0 is no effect and 100 is complete control, 13 to 15 days
[5] = 125 g ai/ha, scale of 0 to 100 where 0 is no effect and 100 is complete control, 13 to 15 days
[6] = Postemergence, 125 g ai/ha, 0 to 100 scale, 0 no effect, 100 complete control
[7] = Postemergence, 500 g ai/ha, 0 to 100 scale (0 no effect, 100 complete control)
[8] = preemergence, 500 g ai/ha, 0 to 100 scale
[9] = 125 g ai/ha, visual rating on 0 to 100 scale (0 no effect, 100 complete control)
[10] = Preemergence, 125 g ai/ha, visual rating on 0 to 100 scale (0 no effect, 100 complete control)
[11] = preemergence, 500 g ai/ha, 0 to 100 scale (0 no effect, 100 complete control)
[12] = Postemergence, visual rating on 0 to 100 scale (0 no effect, 100 complete control), approx. 10 days
[13] = Preemergence, 0 to 100 scale where 0 is no effect and 100 is complete control
[14] = Preemergence, 500 g ai/ha, visual rating on 0 to 100 scale (0 no effect, 100 complete control)
[15] = Postemergence, 125 g ai/ha, visual rating on 0 to 100 scale (0 no effect, 100 complete control), approx. 10 days
[16] = Preemergence, 125 g ai/ha, 0 to 100 scale where 0 is no effect and 100 is complete control

CC1NC(=O)C(C(=O)Nc2ccccc2F)C1c1ccc(F)c(F)c1 (mixture of isomers) [Compound 7]
Plant response rating, Sedge, Umbrella (sedge, umbrella; [3]): 0 | Plant response rating, Sedge, Umbrella (sedge, umbrella; [4]): 0 | Plant response rating, Sedge, Umbrella (sedge, umbrella; [5]): 0 | Plant response rating, Sedge, Umbrella (sedge, umbrella; 250 g ai/ha, scale 0 to 100): 0 | Plant response rating, Ducksalad (ducksalad; [3]): 0 | Plant response rating, Ducksalad (ducksalad; [4]): 0 | Plant response rating, Ducksalad (ducksalad; [5]): 0 | Plant response rating, Ducksalad (ducksalad; 250 g ai/ha, scale 0 to 100): 0 | Plant response rating, Morningglory (morningglory; [6]): 0 | Plant response rating, Morningglory (morningglory; [7]): 0 | Morningglory plant response rating (morningglory; 125 g ai/ha): 0 | Plant response rating, Morningglory (morningglory; [8]): 0 | Plant response rating, Velvetleaf (velvetleaf; [6]): 0 | Plant response rating, Velvetleaf (velvetleaf; [7]): 0 | Velvetleaf plant response rating (velvetleaf; 125 g ai/ha): 0 | Plant response rating, Velvetleaf (velvetleaf; [8]): 0 | Plant response rating, Corn (corn; [6]): 0 | Plant response rating, Corn (corn; [7]): 0 | Corn plant response rating (corn; [9]): 0 | Plant response rating, Corn (corn; [8]): 0 | Plant response rating, Rice (rice; [3]): 0 | Plant response rating, Rice (rice; [4]): 0 | Plant response rating, Rice (rice; [5]): 0 | Plant response rating, Rice (rice; 250 g ai/ha, scale 0 to 100): 0 | Plant response rating, Barnyardgrass (barnyardgrass [1]; [6]): 20 | Plant response rating, Barnyardgrass (barnyardgrass [1]; [7]): 70 | Barnyardgrass plant response rating (barnyardgrass [1]; [10]): 20 | Plant response rating, Barnyardgrass (barnyardgrass [1]; [11]): 80 | Plant response rating, Barnyardgrass (barnyardgrass [2]; [3]): 0 | Plant response rating, Barnyardgrass (barnyardgrass [2]; [4]): 0 | Plant response rating, Barnyardgrass (barnyardgrass [2]; [5]): 0 | Plant response rating, Barnyardgrass (barnyardgrass [2]; 250 g ai/ha, scale 0 to 100): 0 | Plant response rating, Wheat (wheat; [6]): 0 | Plant response rating, Wheat (wheat; [7]): 0 | Wheat plant response rating (wheat; [9]): 0 | Plant response rating, Wheat (wheat; [8]): 0 | Plant response rating, Foxtail, Giant (giant foxtail; [6]): 0 | Plant response rating, Foxtail, Giant (giant foxtail; [7]): 50 | Foxtail, Giant plant response rating (giant foxtail; [10]): 70 | Plant response rating, Foxtail, Giant (giant foxtail; [8]): 90 | Plant response rating, Crabgrass, Large (crabgrass, large; [6]): 30 | Plant response rating, Crabgrass, Large (crabgrass, large; [7]): 80 | Crabgrass, Large plant response rating (crabgrass, large; 125 g ai/ha): 80 | Plant response rating, Crabgrass, Large (crabgrass, large; [8]): 90 | Plant response rating, Pigweed (pigweed; [6]): 0 | Plant response rating, Pigweed (pigweed; [7]): 0 | Pigweed plant response rating (pigweed; [10]): 0 | Plant response rating, Pigweed (pigweed; [8]): 0

CC1NC(=O)C(C(=O)Nc2ccccc2F)C1c1ccc(F)c(F)c1 (mixture of isomers) [Compound 8]
Plant response rating, Sedge, Umbrella (sedge, umbrella; [3]): 0 | Plant response rating, Sedge, Umbrella (sedge, umbrella; [4]): 0 | Plant response rating, Sedge, Umbrella (sedge, umbrella; [5]): 0 | Plant response rating, Sedge, Umbrella (sedge, umbrella; 250 g ai/ha, scale 0 to 100): 0 | Plant response rating, Ducksalad (ducksalad; [3]): 0 | Plant response rating, Ducksalad (ducksalad; [4]): 0 | Plant response rating, Ducksalad (ducksalad; [5]): 0 | Plant response rating, Ducksalad (ducksalad; 250 g ai/ha, scale 0 to 100): 0 | Plant response rating, Morningglory (morningglory; [6]): 0 | Plant response rating, Morningglory (morningglory; [7]): 0 | Morningglory plant response rating (morningglory; 125 g ai/ha): 0 | Plant response rating, Morningglory (morningglory; [8]): 0 | Plant response rating, Velvetleaf (velvetleaf; [6]): 0 | Plant response rating, Velvetleaf (velvetleaf; [7]): 0 | Velvetleaf plant response rating (velvetleaf; 125 g ai/ha): 0 | Plant response rating, Velvetleaf (velvetleaf; [8]): 0 | Plant response rating, Corn (corn; [6]): 0 | Plant response rating, Corn (corn; [7]): 0 | Corn plant response rating (corn; [9]): 0 | Plant response rating, Corn (corn; [8]): 20 | Plant response rating, Rice (rice; [3]): 0 | Plant response rating, Rice (rice; [4]): 0 | Plant response rating, Rice (rice; [5]): 0 | Plant response rating, Rice (rice; 250 g ai/ha, scale 0 to 100): 0 | Plant response rating, Barnyardgrass (barnyardgrass [1]; [6]): 20 | Plant response rating, Barnyardgrass (barnyardgrass [1]; [7]): 60 | Barnyardgrass plant response rating (barnyardgrass [1]; [10]): 20 | Plant response rating, Barnyardgrass (barnyardgrass [1]; [11]): 60 | Plant response rating, Barnyardgrass (barnyardgrass [2]; [3]): 0 | Plant response rating, Barnyardgrass (barnyardgrass [2]; [4]): 0 | Plant response rating, Barnyardgrass (barnyardgrass [2]; [5]): 0 | Plant response rating, Barnyardgrass (barnyardgrass [2]; 250 g ai/ha, scale 0 to 100): 0 | Plant response rating, Wheat (wheat; [6]): 0 | Plant response rating, Wheat (wheat; [7]): 0 | Wheat plant response rating (wheat; [9]): 0 | Plant response rating, Wheat (wheat; [8]): 0 | Plant response rating, Foxtail, Giant (giant foxtail; [6]): 0 | Plant response rating, Foxtail, Giant (giant foxtail; [7]): 50 | Foxtail, Giant plant response rating (giant foxtail; [10]): 60 | Plant response rating, Foxtail, Giant (giant foxtail; [8]): 90 | Plant response rating, Crabgrass, Large (crabgrass, large; [6]): 60 | Plant response rating, Crabgrass, Large (crabgrass, large; [7]): 70 | Crabgrass, Large plant response rating (crabgrass, large; 125 g ai/ha): 80 | Plant response rating, Crabgrass, Large (crabgrass, large; [8]): 90 | Plant response rating, Pigweed (pigweed; [6]): 0 | Plant response rating, Pigweed (pigweed; [7]): 0 | Pigweed plant response rating (pigweed; [10]): 0 | Plant response rating, Pigweed (pigweed; [8]): 0

CC(C)(C)c1cccc(C2CNC(=O)C2C(=O)Nc2ccccc2F)c1 (centres unmarked) [Compound 347]
Plant response rating, Kochia (kochia; [12]): 0 | Plant response rating, Kochia (kochia; [13]): 0 | Kochia plant response rating (kochia; [14]): 0 | Plant response rating, Galium (galium): 0 | Plant response rating, Blackgrass (blackgrass; 125 g ai/ha, visual rating on 0 to 100 scale (0 no effect, 100 complete control), approx. 10 days): 0 | Plant response rating, Blackgrass (blackgrass; 500 g ai/ha, 0 to 100 scale (0 no effect, 100 complete control)): 0 | Plant response rating, Ryegrass, Italian (ryegrass, Italian; [12]): 0 | Plant response rating, Ryegrass, Italian (ryegrass, Italian; [13]): 0 | Ryegrass, Italian plant response rating (ryegrass, Italian; [14]): 0 | Plant response rating, Corn (corn; [15]): 0 | Plant response rating, Corn (corn; [7]): 0 | Plant response rating, Barnyardgrass (barnyardgrass [1]; [15]): 50 | Plant response rating, Barnyardgrass (barnyardgrass [1]; [7]): 50 | Plant response rating, Barnyardgrass (barnyardgrass [1]; [16]): 50 | Barnyardgrass plant response rating (barnyardgrass [1]; [14]): 90 | Plant response rating, Wheat (wheat; [15]): 0 | Plant response rating, Ragweed (ragweed; [12]): 0 | Plant response rating, Ragweed (ragweed; [13]): 0 | Ragweed plant response rating (ragweed; [14]): 0 | Plant response rating, Foxtail, Giant (giant foxtail; [15]): 20 | Plant response rating, Foxtail, Giant (giant foxtail; [7]): 20 | Plant response rating, Foxtail, Giant (giant foxtail; [16]): 20 | Foxtail, Giant plant response rating (giant foxtail; [14]): 40 | Plant response rating, Pigweed (pigweed; [15]): 0 | Plant response rating, Pigweed (pigweed; [16]): 0 | Pigweed plant response rating (pigweed; [14]): 0
